In publication PMC5484146 (Journal of the American Chemical Society, 2016):

Tests used:
[1] = TEM / optical observation of assemblies and aggregates; assay type: physicochemical
Hydrogelation test = assay type: physicochemical; conditions: 4 mM solution of 1, pH changed to pH 6.4, Figure S2
[2] = 1 (800 µM), peaks disappear at 4.0 wt% Tw-80

CN[C@H](CC(C)C)C(=O)N[C@H]1C(=O)N[C@@H](CC(N)=O)C(=O)N[C@H]2C(=O)N[C@H]3C(=O)N[C@H](C(=O)N[C@H](C(=O)O)c4cc(O)cc(O)c4-c4cc3ccc4O)[C@H](O)c3ccc(c(Cl)c3)Oc3cc2cc(c3O)Oc2ccc(cc2Cl)[C@H]1O [vancomycin aglycon, reference compound]
aggregate formation in EISA of 1P when it replaces 2 ([1]; TEM, Figure S20, short fibers were observed): no aggregates were observed

Nap-FFpYGGaa [1P]
appearance after addition of one equivalent of 2, without ALP ([1]; 1P 500 µM, 1 eq. 2, pH 7.4, TEM aggregates largely unstructured): colloidal suspension | morphology after simultaneous addition of 2 and ALP ([1]; 1P 500 µM, 2 (1 eq.), ALP 1.25 U/mL, pH 7.4, TEM, precipitates over time): large aggregates | morphology after ALP dephosphorylation in the absence of 2 ([1]; 1P 500 µM, ALP 1.25 U/mL, pH 7.4, TEM): long nanofibers

Nap-FFYGGaa [compound 1]
binding with 2 by ITC, in words (ITC in PBS, no surfactant, 1 and 3 as assemblies): too weak to be measured by ITC | ITC heating profile on titration with 2, in words (ITC, 1.0 wt% of Tw-80, Figure 2C): release of heat | appearance after addition of five equivalents of 2 ([1]; 500 µM suspension of 1, 24–48h after the addition, Figure S5): opaque colloidal precipitate | morphology on direct addition in water ([1]; 1 500 µM, pH 7.4, TEM): suspension consisting of nanoribbons | hydrogel formation (Hydrogelation test): self-supporting gel | size of the assemblies (DLS peaks) [2]: > 100 nm
